The target of one series is hERG (Homo sapiens, UniProt Q12809). Put plainly: hERG assay. In general terms: The hERG channel carries a current that helps repolarise heart muscle cells.
For the next series, the system named is primary cortical neurons. Nature of the series: Oxytosis. Format: cell-based. The following applies: Primary cortical neuron; read-out: Half-maximal effective concentration, Oxytosis. The procedure: The various phenotypic screening assays were conducted as previously described. Briefly, HT-22, primary cortical neurons, or MC65 was plated and exposed to the different environmental stresses. Cells were treated with varying concentrations of CAD-31, and half-maximal effective concentration (EC50) was determined on the basis of cell viability.
• An assay that mimics the dramatic loss of neurotrophic support in the old brain is the trophic factor withdrawal assay. Primary embryonic day 18 cortical cells are plated at low density in serum-free medium. At low density, the cells die within 2 days; they can be rescued by combinations of neurotrophic growth factors, but not by one alone ([19] and unpublished data). […] BDNF is a molecule that is also involved in promoting memory and neurogenesis and is reduced in the brain with age and in AD, as well as in other neurological disorders. BDNF has long been considered a drug target for AD [23]. […] A reduction in GSH is a common denominator of old age and essentially all chronic central nervous system (CNS) diseases. J147 and CAD-31 both effectively reduce oxidative stress, with EC50 of 6 nM and 20 nM, respectively. • CAD-31 also prevents loss of energy metabolism that leads to neuron cell death in an in vitro ischemia model. […]

The nature of series [1]: Free feeding CAD-31 plasma and brain levels in mice. Format: in vivo. The method, then: Sprague-Dawley rats had free access to food and water. CAD-31 was given by gavage to rats at 20 mg/kg in corn oil and intravenously in 15% HS 15/PBS. Whole-blood samples were collected from the jugular vein at every time point and brain collected after 20-ml saline perfusion. CAD-31 was extracted with acetonitrile and compared with standards on a TSQ Quantiva™ Triple Quadrupole Mass Spectrometer (Thermo Scientific, Waltham, MA, USA). For the mouse feeding studies, mice had free access to food containing 200 ppm CAD-31. Blood was collected by heart puncture, and the brain concentration was determined as with rats.

For series [2], the system named is human neural precursor cells (NPCs). Set-up: method as in PMID 27149904. The following applies: compared with J147; cited from earlier work.
The test system of another series is OSCP. Put plainly: Immunoblotting of hippocampal tissue. Format: in vivo. To be noted: hippocampus, control and AD mice. The method, then: (§1) Hippocampal tissue samples were homogenized in 10 volumes of radioimmunoprecipitation assay (RIPA) lysis buffer (50 mM Tris, pH 7.5, 150 mM NaCl, 0.1% SDS, 0.5% deoxycholate, and 1% Nonidet P-40) containing a cocktail of protease and phosphatase inhibitors [[…] each of pepstatin A, aprotinin, phosphoramidon, and leupeptin; 0.5 mM 4-(2-aminoethyl)benzenesulfonyl fluoride hydrochloride; 1 mM ethylene glycol-bis(β-aminoethyl ether)-N,N,N′,N′-tetraacetic acid; 5 mM fenvalerate; and 5 mM cantharidin]. Samples were sonicated (2 × 10 seconds) and centrifuged first at 10,000 × g for 10 minutes and then at 100,000 × g for 60 minutes at 4 °C. The 100,000 × g pellet was taken up either in 6 M guanidine for Aβ analysis or in SDS sample buffer for Western blot analysis. Protein concentrations in the cell extracts were determined using a bicinchoninic acid protein assay (Pierce Biotechnology, Rockford, IL, USA). Equal amounts of protein were solubilized in 2.5× SDS sample buffer, separated on 12% SDS-polyacrylamide gels, transferred to Immobilon-P (EMD Millipore, Billerica, MA, USA), and immunoblotted with the antibodies indicated in the Materials subsection above. For Western blot experiments, protein levels were normalized to actin levels. An unpaired t test was performed to compare two groups at a single time point. When comparing multiple groups, one-way analysis of variance (ANOVA) followed by Tukey’s post hoc test was used. All statistical analysis was conducted using GraphPad InStat software.
In general terms: Immunoblotting shows a protein as a band on a membrane.

The next series deals with AMPK phosphorylation. Nature of the series: Immunoblotting of hippocampal tissue. Format: in vivo. The following applies: hippocampus, WT and old AD mice, 200 ppm in chow 3 months. The procedure: as §1
Another series relates to Arc-1. Put plainly: Immunoblotting of hippocampal tissue. To be noted: hippocampus, AD mice fed CAD-31 vs AD mice not fed. Format: in vivo. The method, then: as §1
For another series, the system named is eIF2α phosphorylation. Nature of the series: Immunoblotting of hippocampal tissue. Format: in vivo. The following applies: hippocampus, WT and old AD mice, 200 ppm in chow 3 months. The procedure:
as §1

The next series deals with Drebrin. Put plainly: Immunoblotting of hippocampal tissue. Format: in vivo. To be noted: hippocampus, AD mice fed CAD-31 vs AD mice not fed. The procedure: as §1
The next series relates to RAGE. Nature of the series: Immunoblotting of hippocampal tissue. Format: in vivo. The following applies: hippocampus, AD mice. The procedure:
as §1

A further series has as its system VCAM. Put plainly: Immunoblotting of hippocampal tissue. Format: in vivo. The following applies: hippocampus, AD mice. The procedure: as §1
Another series relates to clusterin. Put plainly: Immunoblotting of hippocampal tissue. To be noted: hippocampus, AD mice. Format: in vivo. The procedure:
as §1

Series [3] concerns APPswe/PS1∆E9 transgenic mice. Put plainly: Two-day water maze. Format: in vivo. The following applies: AD mice fed 200 ppm in chow for 3 months from 10 months of age; day 2. The procedure:
The APPswe/PS1∆E9-transgenic mice were characterized previously. Line 85 mice carry two transgenes, the mouse/human chimeric APPswe, linked to Swedish familial AD and human PS1∆E9. At 10 months of age, female transgenic mice were fed a defined diet (Harlan Teklad; Envigo, Indianapolis, IN, USA) with and without CAD-31 (200 ppm, approximately 10 mg/kg/day). Treatment continued for 3 months, followed by behavior testing and tissue harvesting.
Spatial memory was determined using the 2-day water maze with 13-month-old APPswe/PS1∆E9 transgenic mice fed CAD-31 for the previous 3 months. The protocol was adapted from a publication by Gulinello and colleagues. The goal platform was positioned 45 cm from the outside wall in the northwest quadrant of the maze. Day 1 involved training the mice (n = 10 per group) to find the platform using cues located around the pool within a 180-second time frame. This training involved a series of visible platform trials where mice were tracked using EthoVision software (Noldus Information Technology, Leesburg, VA, USA). […] The time it took each mouse to find the hidden platform was measured as escape latency. All trials were recorded using the EthoVision software, and statistics were computed using InStat software (GraphPad Software, La Jolla, CA, USA) by an individual blinded to the experiment.

The mark [4] stands for this setting: mice fed ad libitum, 200 ppm in chow (about 10 mg/kg/day).

hERG, sequence (Q12809 whole entry): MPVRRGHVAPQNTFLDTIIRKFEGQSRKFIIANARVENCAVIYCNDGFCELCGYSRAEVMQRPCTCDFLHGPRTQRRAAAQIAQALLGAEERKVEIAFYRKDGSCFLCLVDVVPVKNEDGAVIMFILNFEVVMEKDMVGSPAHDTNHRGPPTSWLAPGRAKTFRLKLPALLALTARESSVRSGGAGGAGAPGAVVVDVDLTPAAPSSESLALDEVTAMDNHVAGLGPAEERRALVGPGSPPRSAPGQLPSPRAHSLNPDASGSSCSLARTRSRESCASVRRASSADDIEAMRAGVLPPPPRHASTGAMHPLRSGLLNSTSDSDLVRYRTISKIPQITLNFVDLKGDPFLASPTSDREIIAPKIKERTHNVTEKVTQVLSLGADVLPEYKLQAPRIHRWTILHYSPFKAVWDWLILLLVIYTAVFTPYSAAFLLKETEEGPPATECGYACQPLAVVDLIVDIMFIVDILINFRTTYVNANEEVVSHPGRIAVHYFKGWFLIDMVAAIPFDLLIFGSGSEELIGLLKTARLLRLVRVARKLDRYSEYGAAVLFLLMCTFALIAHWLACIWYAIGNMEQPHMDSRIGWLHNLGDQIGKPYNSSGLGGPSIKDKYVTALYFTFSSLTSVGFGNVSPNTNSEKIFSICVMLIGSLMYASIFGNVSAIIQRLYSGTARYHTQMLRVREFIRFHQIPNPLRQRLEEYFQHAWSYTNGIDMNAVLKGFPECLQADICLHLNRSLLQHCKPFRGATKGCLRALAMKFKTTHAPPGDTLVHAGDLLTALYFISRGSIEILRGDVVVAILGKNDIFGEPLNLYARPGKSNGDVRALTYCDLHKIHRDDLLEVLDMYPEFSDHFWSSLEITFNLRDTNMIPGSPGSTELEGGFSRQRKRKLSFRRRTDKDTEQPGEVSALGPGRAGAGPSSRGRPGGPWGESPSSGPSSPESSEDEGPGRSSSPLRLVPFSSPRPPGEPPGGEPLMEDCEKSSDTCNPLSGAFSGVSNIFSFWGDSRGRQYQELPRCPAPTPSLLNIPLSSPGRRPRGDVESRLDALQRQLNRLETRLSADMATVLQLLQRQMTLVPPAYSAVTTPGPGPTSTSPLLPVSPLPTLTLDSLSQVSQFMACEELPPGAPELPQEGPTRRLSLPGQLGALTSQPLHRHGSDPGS

As to `Cc1ccc(N(/N=C/c2cccc(OC(F)(F)F)c2)C(=O)C(F)(F)F)c(C)c1` [CAD-31], on hERG (10 μM), the “activity in the hERG assay” value is recorded as “showed no sign of acute toxicity or activity”. Moreover, on hERG (human), the EC50 at 10 µM is more than 10000 nM. The EC50 with primary cortical neurons was 20 nM. In addition, in [1] (setting [4]), the “maximum brain concentration, free-fed” value is listed as 53 nM and the “maximum plasma concentration, free-fed” value is listed as 82 nM. In addition, in series [1] (mice, 200 ppm in food), the “Free-Fed ~10 mg/kg/day Brain” value amounted to 0.053 µM and the “Free-Fed ~10 mg/kg/day Plasma” value was found to be 0.082 µM. Moreover, in series [2], the neurogenic activity entry is “enhanced neurogenic activity over J147”. In addition, the OSCP expression entry with OSCP was “increased expression of OSCP in both control and AD mice”. The “AMPK activation by phosphorylation (ratio to total AMPK)” value in the series on AMPK phosphorylation is listed as “enhanced”. In the series on Arc-1, the Arc-1 expression result was “increased expression of both proteins”. Further, the “eIF2α phosphorylation (ratio to total eIF2α)” value in the series on eIF2α phosphorylation was “stimulates eIF2α phosphorylation in both WT and old AD mice”. Moreover, the Drebrin expression entry in the series with Drebrin was “increased expression of both proteins”. Moreover, the RAGE expression entry in the series on RAGE is given as “reduced the expression”. Further, the VCAM expression entry in the series with VCAM is listed as “reduced the expression”. In addition, in the series with clusterin, the clusterin expression entry is “reduced the expression”. Moreover, the “escape latency, hidden platform trial T1” value in series [3] was “significantly reduces the escape latency relative to AD mice to control levels”.

Source of the values: article PMC5513091, “A novel Alzheimer’s disease drug candidate targeting inflammation and fatty acid metabolism” (Alzheimer's Research & Therapy, 2017).
